From paper doi:10.1101/2024.08.19.608619, “Discovery of potent SARS-CoV-2 nsp3 macrodomain inhibitors uncovers lack of translation to cellular antiviral response” (bioRxiv, 2024)
In brackets after ≈: the same amount, converted by molar mass. Where two headings read alike, the source gives them in different places.

Assays:
[1] = LogD
[2] = molecular target: CDK2/cyclinA(h) (Homo sapiens, UniProt P24941); assay: biochemical; set-up: In vitro kinase panel profiling, per cent remaining kinase activity at 10 uM; details: atp_concentration=45, read-out: % of control remaining
Excerpt: (§1) We derisk potential for off-target activity by profiling the compound in a CEREP panel, a standard secondary pharmacology assessment, as well as a kinase panel to derisk a potential hinge-binding motif in our leads, and a PARP panel to derisk activity against human […]. Reassuringly, the compounds are selective, with the only off-targets being moderate human CHRM2 and KOR receptors activity associated with ASAP-0011198.

[3] = molecular target: T1, GSK3β(h) (Homo sapiens, UniProt P49841); assay: biochemical; set-up: In vitro kinase panel profiling, per cent remaining kinase activity at 10 uM; details: atp_concentration=15, read-out: % of control remaining
T1 construct: gene GSK3B
Excerpt: as §1

[4] = molecular target: T2, IRAK4(h) (Homo sapiens, UniProt Q9NWZ3); assay: biochemical; set-up: In vitro kinase panel profiling, per cent remaining kinase activity at 10 uM; details: atp_concentration=200, read-out: % of control remaining
T2 sequence (Q9NWZ3 1-460): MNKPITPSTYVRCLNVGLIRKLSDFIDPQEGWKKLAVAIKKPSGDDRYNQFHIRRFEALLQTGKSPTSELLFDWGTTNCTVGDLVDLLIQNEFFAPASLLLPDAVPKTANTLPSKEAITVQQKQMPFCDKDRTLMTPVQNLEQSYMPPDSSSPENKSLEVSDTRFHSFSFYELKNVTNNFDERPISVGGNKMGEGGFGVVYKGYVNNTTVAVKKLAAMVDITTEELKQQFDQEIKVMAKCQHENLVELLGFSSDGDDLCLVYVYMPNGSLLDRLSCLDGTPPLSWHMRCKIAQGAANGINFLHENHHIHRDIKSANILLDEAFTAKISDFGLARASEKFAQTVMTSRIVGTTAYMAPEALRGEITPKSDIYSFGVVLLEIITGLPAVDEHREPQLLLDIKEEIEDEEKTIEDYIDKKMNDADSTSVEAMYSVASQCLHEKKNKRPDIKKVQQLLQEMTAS
Excerpt: as §1

[5] = molecular target: KDR(h) (Homo sapiens, UniProt P35968); assay: biochemical; set-up: In vitro kinase panel profiling, per cent remaining kinase activity at 10 uM; details: atp_concentration=90, read-out: % of control remaining
Excerpt: as §1

[6] = molecular target: T3, MLK1(h) (Homo sapiens, UniProt P80192); assay: biochemical; set-up: In vitro kinase panel profiling, per cent remaining kinase activity at 10 uM; details: atp_concentration=45, read-out: % of control remaining
T3 construct: gene MAP3K9
Excerpt: as §1

[7] = molecular target: T4, PDGFRβ(h) (Homo sapiens, UniProt P09619); assay: biochemical; set-up: In vitro kinase panel profiling, per cent remaining kinase activity at 10 uM; details: atp_concentration=200, read-out: % of control remaining
T4 construct: gene PDGFRB
Excerpt: as §1

[8] = molecular target: T5, PKA(h) (Homo sapiens, UniProt P17612); assay: biochemical; set-up: In vitro kinase panel profiling, per cent remaining kinase activity at 10 uM; details: atp_concentration=10, read-out: % of control remaining
T5 construct: gene PRKACA
Excerpt: as §1

[9] = molecular target: T6, PRAK(h) (Homo sapiens, UniProt Q8IW41); assay: biochemical; set-up: In vitro kinase panel profiling, per cent remaining kinase activity at 10 uM; details: atp_concentration=15, read-out: % of control remaining
T6 construct: gene MAPKAPK5
T6 sequence (Q8IW41 1-473): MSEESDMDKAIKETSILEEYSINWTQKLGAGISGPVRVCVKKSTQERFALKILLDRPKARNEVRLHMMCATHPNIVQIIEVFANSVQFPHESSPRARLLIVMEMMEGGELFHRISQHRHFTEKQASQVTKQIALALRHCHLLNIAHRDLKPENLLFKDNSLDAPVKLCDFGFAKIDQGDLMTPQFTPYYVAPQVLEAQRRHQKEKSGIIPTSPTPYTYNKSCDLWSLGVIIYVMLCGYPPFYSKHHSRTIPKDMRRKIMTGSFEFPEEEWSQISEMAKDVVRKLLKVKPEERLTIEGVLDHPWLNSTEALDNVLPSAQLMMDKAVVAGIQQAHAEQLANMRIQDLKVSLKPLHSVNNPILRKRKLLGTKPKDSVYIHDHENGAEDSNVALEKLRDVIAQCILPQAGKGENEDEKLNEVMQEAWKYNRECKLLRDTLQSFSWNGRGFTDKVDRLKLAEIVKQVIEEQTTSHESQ
Excerpt: as §1

[10] = molecular target: T7, Rsk1(h) (Homo sapiens, UniProt Q15418); assay: biochemical; set-up: In vitro kinase panel profiling, per cent remaining kinase activity at 10 uM; details: atp_concentration=45, read-out: % of control remaining
T7 construct: gene RPS6KA1
Excerpt: as §1

[11] = molecular target: T8, TAK1(h) (Homo sapiens, UniProt O43318); assay: biochemical; set-up: In vitro kinase panel profiling, per cent remaining kinase activity at 10 uM; details: atp_concentration=45, read-out: % of control remaining
T8 construct: gene MAP3K7
T8 sequence (O43318 1-606): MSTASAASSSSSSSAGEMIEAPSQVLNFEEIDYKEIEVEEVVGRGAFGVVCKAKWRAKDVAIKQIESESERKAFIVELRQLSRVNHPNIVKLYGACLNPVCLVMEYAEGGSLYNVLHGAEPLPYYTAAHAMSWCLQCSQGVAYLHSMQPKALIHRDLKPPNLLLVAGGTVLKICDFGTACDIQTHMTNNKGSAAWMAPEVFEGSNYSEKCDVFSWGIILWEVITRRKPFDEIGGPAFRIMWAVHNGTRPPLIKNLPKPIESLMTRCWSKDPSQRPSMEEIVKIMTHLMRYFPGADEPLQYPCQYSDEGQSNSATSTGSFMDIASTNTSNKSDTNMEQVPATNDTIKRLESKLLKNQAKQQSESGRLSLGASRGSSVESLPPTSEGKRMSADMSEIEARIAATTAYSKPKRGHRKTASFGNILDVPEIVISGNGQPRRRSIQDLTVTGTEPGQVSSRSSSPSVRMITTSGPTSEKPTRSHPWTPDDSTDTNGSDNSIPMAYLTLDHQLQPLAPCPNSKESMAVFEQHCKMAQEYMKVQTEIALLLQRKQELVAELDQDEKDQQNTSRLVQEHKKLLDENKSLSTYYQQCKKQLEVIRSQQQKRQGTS
Excerpt: as §1

[12] = In vitro kinetic solubility; details: for solubility_mean: In vitro kinetic solubility, ph 7.4

T7 sequence (Q15418 whole entry): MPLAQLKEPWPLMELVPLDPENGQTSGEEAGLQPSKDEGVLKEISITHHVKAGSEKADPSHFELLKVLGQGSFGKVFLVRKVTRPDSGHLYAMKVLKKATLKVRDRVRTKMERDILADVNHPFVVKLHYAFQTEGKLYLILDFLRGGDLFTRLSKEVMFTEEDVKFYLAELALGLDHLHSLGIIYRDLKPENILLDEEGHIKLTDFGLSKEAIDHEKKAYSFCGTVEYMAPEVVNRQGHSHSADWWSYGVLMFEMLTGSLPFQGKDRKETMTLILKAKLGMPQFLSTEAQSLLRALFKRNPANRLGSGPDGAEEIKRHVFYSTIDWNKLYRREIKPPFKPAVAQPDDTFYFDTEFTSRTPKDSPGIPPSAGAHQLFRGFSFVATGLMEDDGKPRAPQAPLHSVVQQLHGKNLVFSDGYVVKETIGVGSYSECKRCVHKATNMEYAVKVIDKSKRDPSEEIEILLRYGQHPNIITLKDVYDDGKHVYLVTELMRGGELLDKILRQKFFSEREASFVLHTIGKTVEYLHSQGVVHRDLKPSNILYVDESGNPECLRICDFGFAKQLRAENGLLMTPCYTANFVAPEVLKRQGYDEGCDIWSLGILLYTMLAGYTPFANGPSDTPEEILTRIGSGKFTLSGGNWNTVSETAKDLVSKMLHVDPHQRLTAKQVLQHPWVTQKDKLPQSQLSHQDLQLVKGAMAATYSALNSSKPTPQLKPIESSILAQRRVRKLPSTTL
T3 sequence (P80192 whole entry): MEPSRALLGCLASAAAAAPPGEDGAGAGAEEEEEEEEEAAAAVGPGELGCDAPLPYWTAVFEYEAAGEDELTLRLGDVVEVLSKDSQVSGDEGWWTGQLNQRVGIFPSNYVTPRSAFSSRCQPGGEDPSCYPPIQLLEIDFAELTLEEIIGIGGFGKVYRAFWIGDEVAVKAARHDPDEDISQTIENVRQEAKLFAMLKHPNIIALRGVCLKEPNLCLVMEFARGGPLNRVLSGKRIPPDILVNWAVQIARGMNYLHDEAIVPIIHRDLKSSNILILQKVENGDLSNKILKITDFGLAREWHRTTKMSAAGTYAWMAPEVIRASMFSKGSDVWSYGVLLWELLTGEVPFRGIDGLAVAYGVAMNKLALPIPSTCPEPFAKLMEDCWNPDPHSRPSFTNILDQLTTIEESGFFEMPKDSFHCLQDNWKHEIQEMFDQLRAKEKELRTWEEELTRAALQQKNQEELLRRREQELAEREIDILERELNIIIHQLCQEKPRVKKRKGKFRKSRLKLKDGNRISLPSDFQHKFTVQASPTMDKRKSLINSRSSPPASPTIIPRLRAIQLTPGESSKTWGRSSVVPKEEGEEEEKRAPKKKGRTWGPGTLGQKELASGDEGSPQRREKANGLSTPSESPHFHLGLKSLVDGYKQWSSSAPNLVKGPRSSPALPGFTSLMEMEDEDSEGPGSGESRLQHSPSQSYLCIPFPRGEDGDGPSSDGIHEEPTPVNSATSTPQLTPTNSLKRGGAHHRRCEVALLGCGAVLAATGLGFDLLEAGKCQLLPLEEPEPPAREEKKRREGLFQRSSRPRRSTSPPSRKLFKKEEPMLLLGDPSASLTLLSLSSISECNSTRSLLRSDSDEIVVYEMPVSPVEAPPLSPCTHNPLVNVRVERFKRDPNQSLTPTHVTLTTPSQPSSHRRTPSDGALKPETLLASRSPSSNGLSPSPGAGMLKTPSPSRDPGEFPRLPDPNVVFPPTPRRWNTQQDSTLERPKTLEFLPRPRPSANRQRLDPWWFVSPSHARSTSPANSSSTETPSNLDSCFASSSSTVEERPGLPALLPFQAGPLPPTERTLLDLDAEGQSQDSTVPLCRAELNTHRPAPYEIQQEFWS
T1 sequence (P49841 whole entry): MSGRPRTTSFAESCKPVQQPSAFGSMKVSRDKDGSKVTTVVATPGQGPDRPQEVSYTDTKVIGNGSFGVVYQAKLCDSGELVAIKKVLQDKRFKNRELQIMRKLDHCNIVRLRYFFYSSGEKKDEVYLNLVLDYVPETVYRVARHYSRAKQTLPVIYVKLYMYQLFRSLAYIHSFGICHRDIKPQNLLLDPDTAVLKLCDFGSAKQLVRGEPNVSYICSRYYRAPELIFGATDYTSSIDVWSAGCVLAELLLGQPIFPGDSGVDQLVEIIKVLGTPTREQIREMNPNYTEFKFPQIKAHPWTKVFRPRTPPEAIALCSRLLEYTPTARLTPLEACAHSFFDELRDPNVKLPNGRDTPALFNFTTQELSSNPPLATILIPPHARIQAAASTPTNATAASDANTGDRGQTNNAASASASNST
Sequence of KDR(h) (P35968 whole entry): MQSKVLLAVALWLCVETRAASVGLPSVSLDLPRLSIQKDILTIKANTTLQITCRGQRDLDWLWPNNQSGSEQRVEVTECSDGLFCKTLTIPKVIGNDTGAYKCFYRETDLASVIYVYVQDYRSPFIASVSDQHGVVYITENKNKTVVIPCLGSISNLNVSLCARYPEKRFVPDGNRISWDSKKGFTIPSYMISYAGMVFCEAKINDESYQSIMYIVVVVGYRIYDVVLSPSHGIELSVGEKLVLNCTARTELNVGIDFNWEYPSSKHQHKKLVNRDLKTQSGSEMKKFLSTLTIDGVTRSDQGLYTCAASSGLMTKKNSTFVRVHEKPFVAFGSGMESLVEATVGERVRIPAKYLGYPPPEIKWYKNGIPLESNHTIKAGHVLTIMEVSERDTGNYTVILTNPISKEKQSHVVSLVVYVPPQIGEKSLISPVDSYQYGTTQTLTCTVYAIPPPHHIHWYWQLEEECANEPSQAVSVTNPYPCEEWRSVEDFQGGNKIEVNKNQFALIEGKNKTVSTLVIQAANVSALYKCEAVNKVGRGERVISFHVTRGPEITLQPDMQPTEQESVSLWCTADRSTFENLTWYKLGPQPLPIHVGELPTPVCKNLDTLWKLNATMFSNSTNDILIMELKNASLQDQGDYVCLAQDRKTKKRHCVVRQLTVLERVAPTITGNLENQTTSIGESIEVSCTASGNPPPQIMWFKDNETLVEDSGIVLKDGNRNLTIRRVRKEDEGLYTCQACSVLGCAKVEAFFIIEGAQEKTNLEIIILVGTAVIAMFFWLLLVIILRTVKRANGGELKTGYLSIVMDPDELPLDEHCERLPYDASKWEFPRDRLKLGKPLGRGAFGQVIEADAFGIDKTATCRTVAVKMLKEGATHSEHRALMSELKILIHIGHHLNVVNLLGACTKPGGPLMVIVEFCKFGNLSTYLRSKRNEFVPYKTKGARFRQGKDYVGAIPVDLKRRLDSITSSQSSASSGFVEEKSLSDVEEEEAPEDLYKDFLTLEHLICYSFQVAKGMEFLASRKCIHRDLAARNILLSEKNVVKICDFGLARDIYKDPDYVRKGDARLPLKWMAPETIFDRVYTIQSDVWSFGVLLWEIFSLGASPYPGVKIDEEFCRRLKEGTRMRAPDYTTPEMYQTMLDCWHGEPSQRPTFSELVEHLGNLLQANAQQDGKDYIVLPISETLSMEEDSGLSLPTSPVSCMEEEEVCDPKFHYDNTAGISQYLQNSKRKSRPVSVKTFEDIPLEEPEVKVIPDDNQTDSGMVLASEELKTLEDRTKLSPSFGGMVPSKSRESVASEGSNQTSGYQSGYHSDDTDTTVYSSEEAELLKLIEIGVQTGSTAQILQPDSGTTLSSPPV
T4 sequence (P09619 whole entry): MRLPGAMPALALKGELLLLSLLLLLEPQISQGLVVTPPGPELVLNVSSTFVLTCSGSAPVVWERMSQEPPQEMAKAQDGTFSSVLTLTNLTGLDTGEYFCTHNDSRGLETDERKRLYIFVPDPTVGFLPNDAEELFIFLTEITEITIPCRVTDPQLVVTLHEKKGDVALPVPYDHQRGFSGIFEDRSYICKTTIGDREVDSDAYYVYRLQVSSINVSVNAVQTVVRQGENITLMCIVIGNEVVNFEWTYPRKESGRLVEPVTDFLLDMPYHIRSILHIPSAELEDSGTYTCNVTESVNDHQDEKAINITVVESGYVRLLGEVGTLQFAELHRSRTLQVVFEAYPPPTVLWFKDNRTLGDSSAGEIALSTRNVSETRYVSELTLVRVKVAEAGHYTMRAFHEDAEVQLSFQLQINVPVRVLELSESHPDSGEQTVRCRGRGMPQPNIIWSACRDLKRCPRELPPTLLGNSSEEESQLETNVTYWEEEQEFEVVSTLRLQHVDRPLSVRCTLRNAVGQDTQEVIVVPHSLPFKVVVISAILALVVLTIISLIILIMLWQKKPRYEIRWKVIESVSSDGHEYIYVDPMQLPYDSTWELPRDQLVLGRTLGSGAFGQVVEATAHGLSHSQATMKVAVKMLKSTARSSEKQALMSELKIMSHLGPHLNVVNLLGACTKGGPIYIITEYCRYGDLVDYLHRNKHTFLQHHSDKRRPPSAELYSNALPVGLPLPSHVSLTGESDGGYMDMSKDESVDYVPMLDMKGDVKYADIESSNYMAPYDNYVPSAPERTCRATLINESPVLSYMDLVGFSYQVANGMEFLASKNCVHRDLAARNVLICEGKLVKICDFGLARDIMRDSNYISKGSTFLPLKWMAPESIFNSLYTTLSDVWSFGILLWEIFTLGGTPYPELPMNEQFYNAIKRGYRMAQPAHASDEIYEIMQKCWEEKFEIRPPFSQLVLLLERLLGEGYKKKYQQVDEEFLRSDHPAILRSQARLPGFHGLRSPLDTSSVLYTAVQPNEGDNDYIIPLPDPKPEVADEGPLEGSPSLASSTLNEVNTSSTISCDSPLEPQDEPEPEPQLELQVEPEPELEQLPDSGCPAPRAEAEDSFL

CC(C)C(Nc1ncnc2[nH]c(C(=O)NC3CCN(C)C3)cc12)c1ccc2c(c1)S(=O)(=O)CCC2 (centres unmarked) [ASAP-0011198]
logd [1]: 1.6 | logd ([1]; pH 7.4): 1.6 | remaining activity at 10 µM ([2]; batch_name=ASAP-0011198-002): 117% | remaining activity at 10 µM ([3]; batch_name=ASAP-0011198-002): 93% | remaining activity at 10 µM ([4]; batch_name=ASAP-0011198-002): 105% | remaining activity at 10 µM ([5]; batch_name=ASAP-0011198-002): 96% | remaining activity at 10 µM ([6]; batch_name=ASAP-0011198-002): 96% | remaining activity at 10 µM ([7]; batch_name=ASAP-0011198-002): 83% | remaining activity at 10 µM ([8]; batch_name=ASAP-0011198-002): 89% | remaining activity at 10 µM ([9]; batch_name=ASAP-0011198-002): 111% | remaining activity at 10 µM ([10]; batch_name=ASAP-0011198-002): 94% | remaining activity at 10 µM ([11]; batch_name=ASAP-0011198-002): 100% | solubility kinetic [12]: 392 µM (≈ 195 µg/mL) | solubility ([12]; pH 7.4): 392 µM (≈ 195 µg/mL)

COc1ccc([C@H](Cc2nnn[nH]2)NC(=O)c2ncnc3[nH]ccc23)cc1 [ASAP-0015381]
logd ([1]; pH 7.4, In vitro LogD): -0.5 | remaining activity at 10 µM ([2]; batch_name=ASAP-0015381-001): 113% | remaining activity at 10 µM ([3]; batch_name=ASAP-0015381-001): 90% | remaining activity at 10 µM ([4]; batch_name=ASAP-0015381-001): 109% | remaining activity at 10 µM ([5]; batch_name=ASAP-0015381-001): 97% | remaining activity at 10 µM ([6]; batch_name=ASAP-0015381-001): 87% | remaining activity at 10 µM ([7]; batch_name=ASAP-0015381-001): 103% | remaining activity at 10 µM ([8]; batch_name=ASAP-0015381-001): 88% | remaining activity at 10 µM ([9]; batch_name=ASAP-0015381-001): 109% | remaining activity at 10 µM ([10]; batch_name=ASAP-0015381-001): 102% | remaining activity at 10 µM ([11]; batch_name=ASAP-0015381-001): 99% | solubility_mean [12]: 367 µM (≈ 134 µg/mL)

COc1ccc([C@@H](Cc2nnn[nH]2)NC(=O)c2ncnc3[nH]ccc23)cc1 [ASAP-0008340]
logd ([1]; pH 7.4, In vitro LogD): -0.1 | remaining activity at 10 µM ([2]; batch_name=ASAP-0008340-001): 97% | remaining activity at 10 µM ([3]; batch_name=ASAP-0008340-001): 105% | remaining activity at 10 µM ([4]; batch_name=ASAP-0008340-001): 91% | remaining activity at 10 µM ([5]; batch_name=ASAP-0008340-001): 79% | remaining activity at 10 µM ([6]; batch_name=ASAP-0008340-001): 85% | remaining activity at 10 µM ([7]; batch_name=ASAP-0008340-001): 102% | remaining activity at 10 µM ([8]; batch_name=ASAP-0008340-001): 105% | remaining activity at 10 µM ([9]; batch_name=ASAP-0008340-001): 95% | remaining activity at 10 µM ([10]; batch_name=ASAP-0008340-001): 98% | remaining activity at 10 µM ([11]; batch_name=ASAP-0008340-001): 88% | solubility_mean [12]: 395 µM (≈ 144 µg/mL)

CNCc1cc(-c2cc3c(N[C@@H](c4ccc5c(c4)S(=O)(=O)CCC5)C(C)C)ncnc3[nH]2)co1 [ASAP-0011176]
logd ([1]; pH 7.4, In vitro LogD): 2.2 | remaining activity at 10 µM ([2]; batch_name=ASAP-0011176-002): 98% | remaining activity at 10 µM ([3]; batch_name=ASAP-0011176-002): 92% | remaining activity at 10 µM ([4]; batch_name=ASAP-0011176-002): 100% | remaining activity at 10 µM ([5]; batch_name=ASAP-0011176-002): 88% | remaining activity at 10 µM ([6]; batch_name=ASAP-0011176-002): 86% | remaining activity at 10 µM ([7]; batch_name=ASAP-0011176-002): 89% | remaining activity at 10 µM ([8]; batch_name=ASAP-0011176-002): 96% | remaining activity at 10 µM ([9]; batch_name=ASAP-0011176-002): 122% | remaining activity at 10 µM ([10]; batch_name=ASAP-0011176-002): 90% | remaining activity at 10 µM ([11]; batch_name=ASAP-0011176-002): 90% | solubility_mean [12]: 345 µM (≈ 165 µg/mL)

Cn1ncc(-c2cc3c(N[C@@H](c4ccc5c(n4)OCCO5)C(C)(C)C)ncnc3[nH]2)c1C#N [ASAP-0011221]
logd ([1]; pH 7.4, In vitro LogD): 3.3 | remaining activity at 10 µM ([2]; batch_name=ASAP-0011221-002): 114% | remaining activity at 10 µM ([3]; batch_name=ASAP-0011221-002): 98% | remaining activity at 10 µM ([4]; batch_name=ASAP-0011221-002): 132% | remaining activity at 10 µM ([5]; batch_name=ASAP-0011221-002): 83% | remaining activity at 10 µM ([6]; batch_name=ASAP-0011221-002): 94% | remaining activity at 10 µM ([7]; batch_name=ASAP-0011221-002): 100% | remaining activity at 10 µM ([8]; batch_name=ASAP-0011221-002): 95% | remaining activity at 10 µM ([9]; batch_name=ASAP-0011221-002): 86% | remaining activity at 10 µM ([10]; batch_name=ASAP-0011221-002): 136% | remaining activity at 10 µM ([11]; batch_name=ASAP-0011221-002): 95% | solubility_mean [12]: 24 µM (≈ 10.7 µg/mL)

C[C@H](C(=O)O)[C@@H](NC(=O)c1ncnc2[nH]ccc12)c1ccc(Br)cc1 [ASAP-0014722]
logd ([1]; pH 7.4, In vitro LogD): 0.6 | remaining activity at 10 µM ([2]; batch_name=ASAP-0014722-002): 102% | remaining activity at 10 µM ([3]; batch_name=ASAP-0014722-002): 93% | remaining activity at 10 µM ([4]; batch_name=ASAP-0014722-002): 106% | remaining activity at 10 µM ([5]; batch_name=ASAP-0014722-002): 77% | remaining activity at 10 µM ([6]; batch_name=ASAP-0014722-002): 86% | remaining activity at 10 µM ([7]; batch_name=ASAP-0014722-002): 110% | remaining activity at 10 µM ([8]; batch_name=ASAP-0014722-002): 87% | remaining activity at 10 µM ([9]; batch_name=ASAP-0014722-002): 88% | remaining activity at 10 µM ([10]; batch_name=ASAP-0014722-002): 88% | remaining activity at 10 µM ([11]; batch_name=ASAP-0014722-002): 95% | solubility_mean [12]: 358 µM (≈ 144 µg/mL)
